Experimental data: patent US20230151025A1, “SUBSTITUTED THIAZOLOPYRIDINES, SALTS THEREOF AND THEIR USE AS HERBICIDALLY ACTIVE SUBSTANCES” (Bayer Aktiengesellschaft, priority 2020, published 2023)

How the values were obtained:
Format in all cases: in vivo
[1] = tested on: Abutilon theophrasti (ABUTH); experiment: Herbicidal post-emergence action (B), 1280 g/ha; settings: rated visually after about 3 weeks vs untreated controls
Summary of the method: (§1)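 Greenhouse-grown weeds at the one-leaf stage received a foliar spray of the formulated compound (WP or EC, 0.5% additive, 600 L/ha). Damage was scored visually after about 3 weeks on a 0–100% scale against untreated plants.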

[2] = tested on: Alopecurus myosuroides (ALOMY); experiment: Herbicidal post-emergence action (B), 1280 g/ha; settings: rated visually after about 3 weeks vs untreated controls
Summary of the method: as §1

[3] = tested on: Amaranthus retroflexus (AMARE); experiment: Herbicidal post-emergence action (B), 1280 g/ha; settings: rated visually after about 3 weeks vs untreated controls
Summary of the method: as §1

[4] = tested on: Echinochloa crus-galli (ECHCG); experiment: Herbicidal post-emergence action (B), 1280 g/ha; settings: rated visually after about 3 weeks vs untreated controls
Summary of the method: as §1

[5] = tested on: Kochia scoparia (KCHSC; Bassia scoparia); experiment: Herbicidal post-emergence action (B), 1280 g/ha
Summary of the method: as §1

Lolium rigidum (LOLRI) [6] = experiment: Herbicidal post-emergence action (B), 1280 g/ha; settings: one-leaf stage, rated after about 3 weeks vs untreated controls, 100% activity = the plants have died, 0% = like control plants
Summary of the method: as §1

[7] = tested on: Matricaria inodora (MATIN); experiment: Herbicidal post-emergence action (B), 1280 g/ha; settings: rated visually after about 3 weeks vs untreated controls
Summary of the method: as §1

Poa annua (POAAN) = experiment: Herbicidal post-emergence action (B), 1280 g/ha; settings: rated visually after about 3 weeks vs untreated controls
Summary of the method: as §1

Stellaria media (STEME) [8] = experiment: Herbicidal post-emergence action (B), 1280 g/ha
Summary of the method: as §1

Veronica persica (VERPE) = experiment: Herbicidal post-emergence action (B), 1280 g/ha
Summary of the method: as §1

[9] = tested on: Matricaria inodora (MATIN); experiment: Herbicidal pre-emergence action (C), 320 g/ha; settings: ca. 3 weeks
Summary of the method: (§2)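 Greenhouse pre-emergence trial with compounds sprayed onto soil above sown seeds in sandy loam (aqueous WP or EC, 0.5% additive, 600 l water/ha); effect scored by eye at roughly 3 weeks as percent damage versus controls.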

[10] = tested on: Polygonum convolvulus (POLCO); experiment: Herbicidal pre-emergence action (C), 320 g/ha; settings: ca. 3 weeks
Summary of the method: as §2

Viola tricolor (VIOTR) [11] = experiment: Herbicidal pre-emergence action (C), 320 g/ha; settings: ca. 3 weeks
Summary of the method: as §2

Setaria viridis (SETVI) [12] = experiment: Herbicidal post-emergence action (D), 320 g/ha; settings: ca. 3 weeks
Summary of the method: (§3)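 Seedlings reaching the single-leaf stage 2 to 3 weeks after sowing in sandy loam received a foliar spray of the formulated compound (WP or EC, 0.5% additive, 600 l water/ha). Damage is rated visually after about 3 weeks in the greenhouse as percent effect relative to untreated plants.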

Avena fatua [13] = experiment: Herbicidal post-emergence action (D), 320 g/ha; settings: ca. 3 weeks
[14] = tested on: Digitaria sanguinalis (DIGSA); experiment: Herbicidal post-emergence action (B), 1280 g/ha; settings: rated visually after about 3 weeks vs untreated controls
Summary of the method: as §1

Setaria viridis (SETVI) [15] = experiment: Herbicidal post-emergence action (B), 1280 g/ha; settings: rated visually after about 3 weeks vs untreated controls
Summary of the method: as §1

Avena fatua [16] = experiment: Herbicidal pre-emergence action (C), 320 g/ha; settings: ca. 3 weeks
Summary of the method: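 Weed and crop seeds sown in sandy loam; WP or EC formulations applied pre-emergence to the soil surface as aqueous suspension/emulsion with 0.5% additive at 600 l water/ha. Greenhouse-grown under optimum conditions; damage visually scored after ca. 3 weeks versus untreated controls (0% = as control, 100% = plants dead).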

[17] = tested on: Abutilon theophrasti (ABUTH); experiment: Herbicidal post-emergence action (D), 320 g/ha; settings: ca. 3 weeks
Summary of the method: as §3

Lolium rigidum (LOLRI) [18] = experiment: Herbicidal post-emergence action (D), 320 g/ha; settings: ca. 3 weeks
Summary of the method: as §3

[19] = tested on: Digitaria sanguinalis (DIGSA); experiment: Herbicidal post-emergence action (D), 320 g/ha; settings: ca. 3 weeks
[20] = tested on: Abutilon theophrasti (ABUTH); experiment: Herbicidal pre-emergence action (C), 320 g/ha; settings: ca. 3 weeks
Summary of the method: as §2

Stellaria media (STEME) [21] = experiment: Herbicidal pre-emergence action (C), 320 g/ha; settings: visual grading after ca. 3 weeks vs untreated controls, 100% = plants have died off, 0% = as control plants
Summary of the method: as §2

Stellaria media (STEME) [22] = experiment: Herbicidal post-emergence action (D), 320 g/ha; settings: ca. 3 weeks
Summary of the method: as §3

Viola tricolor (VIOTR) [23] = experiment: Herbicidal post-emergence action (D), 320 g/ha; settings: ca. 3 weeks
Summary of the method: as §3

Structure (SMILES) | herbicidal activity ABUTH [1] [%] | herbicidal activity ALOMY [2] [%] | herbicidal activity AMARE [3] [%] | herbicidal activity ECHCG [4] [%] | herbicidal effect KCHSC [5] [%] | LOLRI, activity rated visually (%) (Lolium rigidum (LOLRI) [6]) | herbicidal activity MATIN [7] [%] | herbicidal activity POAAN (Poa annua (POAAN)) [%] | herbicidal effect STEME (Stellaria media (STEME) [8]) [%] | herbicidal effect VERPE (Veronica persica (VERPE)) [%] | herbicidal effect MATIN [9] [%] | herbicidal effect POLCO [10] [%] | herbicidal effect VIOTR (Viola tricolor (VIOTR) [11]) [%] | herbicidal effect SETVI (Setaria viridis (SETVI) [12]) [%] | herbicidal activity DIGSA [14] [%] | herbicidal activity SETVI (Setaria viridis (SETVI) [15]) [%] | herbicidal effect AVEFA (Avena fatua [16]) [%] | herbicidal effect ABUTH [17] [%] | herbicidal effect LOLRI (Lolium rigidum (LOLRI) [18]) [%] | herbicidal effect ABUTH [20] [%] | also measured
Cc1cc2scnc2nc1-c1ccsc1C [Example I-194] | 90 | 100 | 100 | 100 | 100 | 100 | 100 | 100 | 100 | 100 | 90 | 90 | 90 | 80 |  |  |  |  |  |  | herbicidal effect AVEFA (Avena fatua [13]): 80%
Cc1cc2scnc2nc1-c1ccccc1 [Example I-041] | 100 | 100 | 100 | 100 | 100 | 100 | 100 | 100 | 100 | 100 | 90 | 90 |  | 90 | 100 | 100 | 90 | 90 | 80 |  | herbicidal effect DIGSA [19]: 90%
Fc1ccccc1-c1ccc2scnc2n1 [Example I-036, 5-(2-fluorophenyl)thiazolo[4,5-b]pyridine] |  |  | 100 | 100 |  | 100 | 100 | 100 | 100 |  | 100 | 90 | 100 | 80 |  | 100 | 100 |  | 80 | 90 | STEME, herbicidal effect in percent (%) (Stellaria media (STEME) [21]): 90%; herbicidal effect STEME (Stellaria media (STEME) [22]): 90%
Cc1cc2scnc2nc1-c1ccccc1Cl [Example I-045] | 90 | 100 | 90 | 100 | 90 | 90 |  | 100 | 100 | 90 |  | 80 | 80 | 80 |  | 100 | 90 | 90 | 80 | 80 | herbicidal effect DIGSA [19]: 90%
Fc1ccccc1-c1nc2ncsc2cc1Cl [Example I-017] | 90 | 100 | 90 | 100 | 90 | 100 |  | 100 | 100 | 90 | 90 | 90 |  | 80 | 100 | 100 | 90 | 80 |  | 80 | herbicidal effect VIOTR (Viola tricolor (VIOTR) [23]): 90%
